Laboratory results taken from PMC10298051, “Hyperoside as a UV Photoprotective or Photostimulating Compound—Evaluation of the Effect of UV Radiation with Selected UV-Absorbing Organic Compounds on Skin Cells” (International Journal of Molecular Sciences, 2023).

Columns and labels:
HaCaT cells [1] = test: Mitochondrial membrane potential (JC-1) in pre-treated HaCaT cells after UVA or UVB; type: cell-based, human; conditions: JC-1, concentration-dependent, UVA 24 J/cm^2 or UVB 1.2 J/cm^2
Protocol: The mitochondrial membrane potential in HaCaT cells was estimated using the fluorescent probe 5,5′,6,6′-tetrachloro-1,1′,3,3′ tetraethylbenzimidazolylcarbocyanine chloride (JC-1, Biotium, Fremont, CA, USA). After UV irradiation in PBS-G, JC-1 was added to the cells at the final assay concentration of 2 μg/mL and the cells were allowed to incubate for 20 min. Then, the fluorescence emission intensity was measured using a Tecan Infinite 200pro fluorescence reader at excitation and emission wavelengths of 490 nm and 590 nm, respectively.

[2] = Cytotoxicity (MTT) of UV-absorbing compounds in HaCaT culture without irradiation; type: cell-based, human; conditions: human, HaCaT keratinocytes, MTT, no irradiation, mean of 3 measurements
Protocol: (§1) The immortalized human keratinocytes HaCaT and reconstituted three-dimensional human epidermis model (EpiDerm, MatTek Europe, SVK) were grown in high-glucose DMEM (Sigma-Aldrich, Burlington, MA, USA) supplemented with sodium bicarbonate (3.7 g/L, Sigma-Aldrich, Burlington, MA, USA), fetal bovine serum (10% v/v, Biowest, France), and penicillin and streptomycin (100 U/mL and 100 μg/mL, respectively, Sigma-Aldrich, Burlington, MA, USA) in darkness under a humidified atmosphere with 5% CO2 at 37 °C. For all experiments, HaCaT was dissociated using TrypLE Express (Gibco by Thermo Fisher Scientific, Waltham, MA, USA) and transferred into 12-well plates at a total number of 1 × 10^5 cells and cultivated for 24 h. The UV sources with relatively homogeneous irradiance were made from commercially available phototherapeutic UV tubes [13]. […] The irradiance values were 6.8 ± 0.4 mW/cm^2 for the UVA source and 3.5 ± 0.4 mW/cm^2 for the UVB source.
(§2) HaCaT cells and Epiderm were incubated for 18 h in DMEM supplemented with UV-absorbing compounds. Irradiation of the culture cells was performed in 0.6 mL/well phosphate-buffered saline (PBS) supplemented with 5 mM glucose (PBS-G) in 12-well plates. In the case of the 3D epidermal models, for irradiation, 3 inserts were always placed in one well of a 6-well plate filled with 0.9 mL of PBS-G; otherwise, they were kept separately in a 24-well plate with 0.3 mL of DMEM per well. After irradiation, PBS was replaced with fresh DMEM and the plates with cells were placed in a CO2 incubator for 18 h. The MTT assay was initiated by adding 5 mg/mL of methylthiazol tetrazolium bromide (MTT, Sigma-Aldrich) to DMEM, resulting in a 10-fold lower concentration of MTT in each well. After 3 h, the medium was completely removed and the formazan crystals produced by the cells were dissolved in 0.6 mL of DMSO for cell cultures or in 2 mL of isopropanol for epidermal models. The absorbance of these solutions was spectroscopically measured at 570 nm.

HaCaT cells [3] = test: Comet assay of DNA fragmentation in pre-treated HaCaT cells after UVA or UVB; type: cell-based, human; conditions: UVA 90 min 36 J/cm^2, HMBP 30 μM, 4-MBC 10 μM, t-UCA 300 μM, Ast 100 μM, Hyp 300 μM
Protocol: DNA damage caused by UVA or UVB radiation to the HaCaT cells pre-treated with UV-absorbing compounds was investigated by a comet assay. The growth medium was replaced by PBS-G and the cells were irradiated by means of the UVA or UVB sources for 90 or 8 min, respectively. After irradiation, PBS-G medium was replaced with DMEM and the cells were allowed to culture for 24 h. The Comet assay was performed as previously described by Manisova and her co-workers. The samples were finally stained by SYBR Green (Invitrogen, Thermo Fisher Scientific, Waltham, MA, USA) and manually scored using an Olympus IX 70 inverted fluorescence microscope with a CCD camera (Olympus, JPN) and CometScore 2.0 software (TriTek, Wilmington, DE, USA). Approximately 100 cells were randomly selected from each sample to assess DNA damage. The amount of DNA in the head (corresponding to low fragmentation) was evaluated.

HaCaT cells [4] = test: Intracellular ROS production (CM-H2DCFDA) in pre-treated HaCaT cells after UVA or UVB; type: cell-based, human; conditions: for ROS production during UVA exposure: UVA 60 min 24 J/cm^2
Protocol: The production of the intracellular ROS induced by UVA or UVB after 18 h of incubation with UV-absorbing compounds was analyzed using the fluorescence probe 5-(and-6)-chloromethyl-2′,7′-dichlorodihydrofluorescein diacetate (CM-H2DCFDA, Invitrogen by Thermo Fisher Scientific, Waltham, MA, USA). The HaCaT cells were incubated in PBS-G buffer supplemented with 10 μM CM-H2DCFDA for 20 min and then, after washing twice in PBS-G, exposed to UVA or UVB radiation for 60 or 3 min. After irradiation, the fluorescence of CM-DCF was recorded using a Tecan Infinite 200 pro fluorescence reader (Tecan, Männedorf, Switzerland) at excitation and emission wavelengths 490 nm and 525 nm, respectively.

epidermis model EpiDerm = test: MTT viability of pre-treated 3D epidermis model EpiDerm after UVA or UVB exposure; type: cell-based, human; conditions: 30 μM hyperoside or 100 μM trans-urocanic acid; 18 h or 42 h pre-incubation; UVA 24 or 36 J/cm^2
Protocol: Control samples without the presence of the compounds are marked as C. Each value represents mean ± S.E. from 3 measurements. * Significant difference compared to the sample without UV-absorbing compound (p < 0.05).
as §1
[…] The absorbance of these solutions was spectroscopically measured at 570 nm. The relative number of viable (oxidoreductase active) cells in the treated and untreated samples (controls) was expressed as a percentage.

[5] = test system: A549 (lung adenocarcinoma); parameters: method as in PMID 31881478; conditions: A549, 24 h; read-out: concentration that halved cell viability; cited from earlier work
[6] = test system: PANC-1 (pancreatic cancer); parameters: method as in PMID 26676634; conditions: PANC-1, 24 h; read-out: concentration that halved cell viability; cited from earlier work
HaCaT cells [7] = test: Phototoxicity test: MTT viability of pre-treated HaCaT cells after UVA or UVB exposure; type: cell-based, human; conditions: 18 h pre-incubation; for change in cell viability after UVA: UVA 60 min 24 J/cm^2, vs irradiated sample without compound
Protocol: In the next study, HaCaT cells were incubated with two apparently non-toxic concentrations of these UV-absorbing compounds for 18 h and then their effect on the viability of HaCaT cells exposed to UVA (for 60 min at a dose of 24 J/cm^2) and UVB radiation for 3 min (at a dose of 0.6 J/cm^2) was monitored.
as §1, §2

[8] = test system: H1975 (non-small cell lung cancer); conditions: H1975, 24 h; read-out: concentration that halved cell viability; cited from earlier work
HaCaT cells [9] = test: Atomic force microscopy of HaCaT cell morphology after UV irradiation; type: cell-based, human; conditions: 50 µM for 4 h
Protocol: The size of HaCaT cells acquired by an atomic force microscope was calculated from 20 cells in an average using the NanoScope Analysis software. Cell diameter was measured along the longest part of the cell. Cells were first incubated with 50 µM hyperoside for 4 h and then irradiated with UVA radiation. […] Irradiating the cells by UV led to cluster disruption and changes in shape. It caused cell swelling, resulting in a decrease in the diameter (19.16 μm for UVA; 23.13 μm for UVB), an increase in the height (4.24 μm for UVA; 3.44 μm for UVB), and an overall elliptic shape compared to control cells (Figure 9). However, the pre-treatment of the cells with hyperoside prevented cells from those UVA-induced morphological changes. After the irradiation, the cells still formed clusters and there were no significant changes in the median of the diameter (29.87 μm) and median of the height (2.24 μm).
HaCaT cells were seeded in Petri dishes (Willco, NLD) containing 2 mL of DMEM. The following day, the cells were exposed to UVA for 90 min and UVB for 20 min. Some cells were pre-incubated with 50 μM hyperoside for 4 h. Before irradiation, the growth medium was replaced with fresh DMEM. Immediately after irradiation, AFM measurements were performed using a Bioscope Catalyst atomic force microscope (Bruker, Billerica, MA, USA). The size of the cell scan was 100 × 100 μm and the scan rate was 0.2–0.3 Hz. […]

HaCaT cells [10] = test: Cytotoxicity (MTT) of UV-absorbing compounds in HaCaT culture without irradiation; type: cell-based, human; conditions: for cell viability (not reduced below): at 300 μM
Protocol: as §1, §2

[11] = 100 μM, UVB 3 min 0.6 J/cm^2, vs irradiated sample without compound

With O=C(c1ccccc1)c1ccc(O)cc1O [2,4-dihydroxybenzophenone] the “change in mitochondrial membrane potential after UV” value (HaCaT cells [1]) was “higher values of the mitochondrial membrane potential” and the IC50 at 18 h [2] was 85 µM.

For COc1ccc(C(=O)c2ccccc2)c(O)c1 [2-hydroxy-4-methoxybenzophenone], the “DNA fragmentation after UVA (percentage of DNA in comet heads)” value (HaCaT cells [3]) was “reduction in DNA fragmentation”, the “change in mitochondrial membrane potential after UV” value (HaCaT cells [1]) was “higher values of the mitochondrial membrane potential” and the IC50 at 18 h [2] was 56 µM.

With Cc1ccc(C=C2C(=O)C3(C)CCC2C3(C)C)cc1 (stereo not shown) [3-(4-methylbenzylidene)camphor] the “ROS production during UVA exposure” value (HaCaT cells [4]; 3 and 10 μM) was “statistically significant decrease in ROS production”, the “DNA fragmentation after UVA (percentage of DNA in comet heads)” value (HaCaT cells [3]) was “reduction in DNA fragmentation” and the IC50 at 18 h [2] was 28 µM.

With O=c1c(O[C@@H]2O[C@H](CO)[C@@H](O)[C@H](O)[C@H]2O)c(-c2ccc(O)cc2)oc2cc(O)cc(O)c12 [astragalin] the “DNA fragmentation after UVA (percentage of DNA in comet heads)” value (HaCaT cells [3]) was “reduction in DNA fragmentation” and the IC50 at 18 h [2] was 78 µM.

For CC1=C(/C=C/C(C)=C/C=C/C(C)=C/C=C/C=C(C)/C=C/C=C(C)/C=C/C2=C(C)CCCC2(C)C)C(C)(C)CCC1 [beta-carotene], the “change in mitochondrial membrane potential after UV” value (HaCaT cells [1]) was “higher values of the mitochondrial membrane potential” and the IC50 at 18 h [2] was 7.3 µM.

In the case of O=c1c(O[C@@H]2O[C@H](CO)[C@H](O)[C@H](O)[C@H]2O)c(-c2ccc(O)c(O)c2)oc2cc(O)cc(O)c12 [hyperoside], the “ROS production during UVA exposure” value (HaCaT cells [4]; 100 μM) is reported as “statistically significant decrease in ROS production”, the “ROS induced by UVB irradiation” value (HaCaT cells [4]; 30 and 100 μM, UVB 3 min 0.6 J/cm^2) is reported as “effective in reducing ROS” and the “DNA fragmentation after UVA (percentage of DNA in comet heads)” value (HaCaT cells [3]) is reported as “reduction in DNA fragmentation”. The “change in viability of EpiDerm after UVA irradiation” value (epidermis model EpiDerm) was “significantly increased its viability”, the IC50 [5] was roughly 400 µM and the “change in mitochondrial membrane potential after UV” value (HaCaT cells [1]) was “opposite effect”. For the same molecule, the IC50 [6] was roughly 550 µM, the “change in cell viability after UVA” value (HaCaT cells [7]; 100 μM) was “also observed for UVA radiation, although to a lesser extent” and the “change in cell viability after UVB” value (HaCaT cells [7]; [11]) was “statistically significant increase in cell viability”. The IC50 [8] was roughly 100 µM, the “median of the cell height after UVA” value (HaCaT cells [9]; then UVA 36 J/cm^2, untreated control 2.02 μm, UVA alone 4.24 μm) was 2.24 μm and the “median of the cell diameter after UVA” value (HaCaT cells [9]; then UVA 36 J/cm^2, untreated control 31.21 μm, UVA alone 19.16 μm) was 29.87 μm. For the same molecule, the IC50 at 18 h [2] was greater than 300 µM and the “cell viability (not reduced below)” value (HaCaT cells [10]) was no less than 60%.

For COc1cc(O)c2c(=O)c(OC)c(-c3ccc(O)c(OC)c3)oc2c1 [pachypodol], the “change in cell viability after UVB” value (HaCaT cells [7]; apparently non-toxic concentrations, UVB 0.6 J/cm^2) was “cell viability decreased significantly”, the IC50 at 18 h [2] was 5.1 µM and the “reduction in cell viability” value (HaCaT cells [10]; at 10 μM) was greater than 50%.

For O=C(O)/C=C/c1c[nH]cn1 [trans-urocanic acid], the “change in viability of EpiDerm after UVA irradiation” value (epidermis model EpiDerm) was “no similar effect was observed”, the “change in cell viability after UVA” value (HaCaT cells [7]; 100 μM) was “only linked with UVB radiation” and the “change in cell viability after UVB” value (HaCaT cells [7]; [11]) was “statistically significant increase in cell viability”. For the same molecule, the IC50 at 18 h [2] was 1100 µM and the “cell viability (not reduced below)” value (HaCaT cells [10]) was no less than 60%.
